Positions count from the first letter of the chain named.
Key:
Sts-1PGM = Sts-1PGM (Mus musculus, UniProt Q8BGG7); experiment: pNPP hydrolysis by Sts-1PGM; assay type: biochemical; conditions: substrate pNPP
Sts-2PGM [1] = target: T1, Sts-2PGM (Mus musculus, UniProt Q3V3E1); experiment: pNPP hydrolysis by wild-type Sts-2PGM; assay type: biochemical; conditions: substrate pNPP, Sts-2PGM wild-type
T1 sequence (Q3V3E1 354-624): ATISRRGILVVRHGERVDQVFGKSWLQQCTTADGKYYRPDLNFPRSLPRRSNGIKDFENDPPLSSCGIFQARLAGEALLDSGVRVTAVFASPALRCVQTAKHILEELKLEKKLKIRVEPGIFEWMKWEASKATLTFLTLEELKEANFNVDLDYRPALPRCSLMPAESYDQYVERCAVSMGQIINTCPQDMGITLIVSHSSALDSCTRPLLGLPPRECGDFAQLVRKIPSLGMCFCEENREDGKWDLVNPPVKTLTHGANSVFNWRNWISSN

Sts-2PGM(E481V) = target: T2, Sts-2PGM(E481V) (Mus musculus, UniProt Q3V3E1, E481V); experiment: pNPP hydrolysis by Sts-2PGM; assay type: biochemical; conditions: substrate pNPP
T2 sequence (Q3V3E1 354-624 E481V): T1 sequence (Q3V3E1 354-624) with E128V

Sts-2PGM(S552A/S582Y) = target: T3, Sts-2PGM(S552A/S582Y) (Mus musculus, UniProt Q3V3E1, S552A/S582Y); experiment: pNPP hydrolysis by Sts-2PGM; assay type: biochemical; conditions: substrate pNPP
T3 sequence (Q3V3E1 354-624 S552A/S582Y): T1 sequence (Q3V3E1 354-624) with S199A, S229Y

Sts-2PGM(A446S/S552A) = target: T4, Sts-2PGM(A446S/S552A) (Mus musculus, UniProt Q3V3E1, A446S/S552A); experiment: pNPP hydrolysis by Sts-2PGM; assay type: biochemical; conditions: substrate pNPP, pH 7.5, relative to Sts-2PGM
T4 sequence (Q3V3E1 354-624 A446S/S552A): T1 sequence (Q3V3E1 354-624) with A93S, S199A

Sts-2PGM [2] = target: T1, Sts-2PGM; experiment: biochemical

Sequence of Sts-1PGM (Q8BGG7 369-638 limits assumed): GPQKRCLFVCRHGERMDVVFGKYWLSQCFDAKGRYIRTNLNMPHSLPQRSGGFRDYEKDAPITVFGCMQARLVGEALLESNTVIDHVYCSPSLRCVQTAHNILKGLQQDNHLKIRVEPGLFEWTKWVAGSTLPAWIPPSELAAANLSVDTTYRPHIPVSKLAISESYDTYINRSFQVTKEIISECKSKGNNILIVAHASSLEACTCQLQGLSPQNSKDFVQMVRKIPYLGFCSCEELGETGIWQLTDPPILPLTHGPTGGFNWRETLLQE

## O=[N+]([O-])c1ccc(OP(=O)(O)O)cc1 [pNPP, p-nitrophenyl phosphate]
Sts-1PGM; pH 5.0, 37 °C
  kcat: 63.4 s⁻¹
Sts-1PGM; pH 5.0, relative to Sts-2PGM
  relative activity: 210000%
Sts-1PGM; pH 7.5, 37 °C
  kcat: 70 s⁻¹
Sts-1PGM; pH 7.5, relative to Sts-2PGM
  relative activity: 9400%
Sts-2PGM [1]; pH 5.0, 37 °C
  kcat: 0.3 s⁻¹
Sts-2PGM [1]; pH 5.0, relative to Sts-2PGM
  relative activity: 13.0%
Sts-2PGM [1]; pH 7.5 (reference)
  relative activity: 1%
Sts-2PGM(E481V); pH 5.0, relative to Sts-2PGM
  relative activity: 207%
Sts-2PGM(E481V); pH 7.5, relative to Sts-2PGM
  relative activity: 10%
Sts-2PGM(S552A/S582Y); pH 5.0, 37 °C
  Km: 600 µM
  kcat: 2.9 s⁻¹
Sts-2PGM(S552A/S582Y); pH 5.0, relative to Sts-2PGM
  relative activity: 312%
Sts-2PGM(A446S/S552A)
  relative activity: 28%

## O=P(O)(O)O [phosphate]
Sts-2PGM [2]
  IC50: 52 ± 6.2 mM
  Ki: 35.1 ± 4.1 mM

## [O]=[W](=[O])([OH])[OH] [tungstate, sodium tungstate]
Sts-2PGM [2]
  IC50: 0.82 ± 0.1 mM
  Ki: 0.54 ± 0.07 mM

## [O]=[V]([OH])([OH])[OH] [vanadate, sodium vanadate]
Sts-2PGM [2]
  IC50: 5.3 ± 3.3 mM
  Ki: 3.55 ± 2.3 mM
